In data set [1] the test system is mechanical (tactile) allodynia in nerve ligation (Chung) model rats. The data set can be described thus: animal or person. The following applies: for Duration / Time to peak effect / Max. efficacy (% MPE): Table I; for Max. efficacy (% MPE): highest dose tested; for ED50: Rattus norvegicus, ip. The procedure:
Rats (male Sprague Dawley, Harlan Industries, Indianapolis, Ind.) are housed in ALAC approved cages using soft bedding and 12/12 hour day/night cycle, in atmospherically maintained rooms in the CTF/VA Animal Vivarium. For the nerve ligation model, rats are typically lesioned at 125-175 g body weight, while for the diabetic rat model, 275-325 gram rats are employed.
Kim SH, Chung JM: An experimental model for peripheral neuropathy produced by segmental spinal nerve ligation in the rat. Pain 50: 355-363 (1992).
Anomalous pain states evoked by nerve injury in man is believed to be modeled by effects produced by chronic peripheral nerve injury lesion in rats. To create a chronic nerve injury the L5 and L6 spinal nerves are visualized by removal of the L6 transverse process. The two spinal nerves are ligated with 6-0 silk thread […] under halothane anesthesia. […] The rats were allowed a 7 day postoperative recovery period before further studies or procedures.
Rats were placed in a clear plastic, wire mesh-bottomed cage, divided into individual compartments of 5×6×9 inches, which permitted freedom of movement while allowing access to the paws to be tested. Animals were allowed to accommodate to this environment for approximately 15 minutes, or until cage exploration behavior ceased. To assess the 50% mechanical threshold for paw withdrawal, von Frey hairs were applied to the plantar mid-hindpaw, avoiding the footpads. The eight von Frey hairs used are designated by and range from 0.4-15.1 grams (#'s3.61-5/18). Each hair was pressed perpendicularly against the paw with sufficient force to cause bending, and held for approximately 6-8 seconds. A positive response was noted if the paw was sharply withdrawn. Absence of a response was cause to present the next consecutive stronger stimulus: a positive response was cause to present the next weaker stimulus. If a change in response occurred, causing a change in the direction of stimulus presentation from descending to ascending or vice-versa, four additional data points were collected subsequent to the change. Stimuli were presented successively until either six data points were collected, or the maximum or minimum stimulus was reached. If a minimum stimulus was reached and positive responses still occurred, the threshold was assigned an arbitrary minimum value of 0.25 grams; if a maximum stimulus was presented and no response occurred, a maximum threshold value of 15 grams was assigned. The resulting pattern of responses was tabulated and the 50% response threshold computed using the formula:
log (threshold, mg×10)=Xf+k∂
Based on observations on normal, unoperated rats and sham-operated rats, the cutoff of a 15.1 g hair is selected as the upper limit for testing. (Chaplan, et al., 1994.)
Four agents were examined. […] The dose range was determined on a single rat on a 0.5 log unit dose until an endpoint of effect was reached (loss of motor function, seizure/rigidity, complete nerve blockage). Once the dose range was established, each drug was examined at a minimum of 3 doses in groups of 6 rats per dose. Groups were prepared to receive injections of drugs, or saline control, by i.p. injection. After the animals accommodated to the post-operative test environment, animals received treatment and the effects upon the tactile threshold were determined using the up-down method as described in Example 3. The following is a typical paradigm for IP application: […]

Data set [2] deals with mechanical (tactile) allodynia in streptozotocin diabetic rats. The following applies: i.p.; for Duration / Time to peak effect: Table III; for Max. efficacy (% MPE): Table III (3, 10 and 20 mg/kg levels only); for maximum efficacy or highest % suppression of allodynia at highest dosage unaffected by toxicity: Example 6.
Procedure: (§1) Rats are made diabetic by a single intraperitoneal injection of streptozotocin (50 mg/kg body weight) freshly dissolved in 0.9% sterile saline) in order to ablate pancreatic β cells and induce insulin deficiency. Two days later, diabetes is confirmed in streptozotocin-injected rats by measuring glucose concentration in a blood sample obtained by tail prick, using a glucose oxidase-impregnated test strip and reflectance meter (Ames Glucostix and Glucometer II, Myles Inc., Elkhart, Ind.) (Calcutt, et al., 1993). Streptozotocin-injected animals with blood glucose concentrations below 15 mmol/l are excluded from subsequent studies. Diabetic rats received thrice weekly sub-cutaneous injections of 2U heat-treated Ultralente insulin (Novo Industrie A/C, Copenhagen, Denmark) in a regime shown to prevent loss of body weight and musculature whilst allowing continued hyperglycemia. Injections were made on Monday, Wednesday and Friday and behavioral measurements made on Tuesdays and Thursdays.
The conditions of data set [3]: cited from earlier work.
A further data set deals with painful neuropathies. The following applies: oral administration, literature; cited from earlier work.
Data set [4] relates to mechanical (tactile) allodynia in streptozotocin diabetic rats. As to the kind of experiment: animal or person. The following applies: Rattus norvegicus, ip.
Procedure: as §1
The test system of another data set is cardiac sodium channels. To be noted: Hill et al. 1988; cited from earlier work.
A further data set deals with arrhythmia in dogs. The following applies: cited from earlier work.
The conditions of data set [5]: stated without a described test.
Where [6] appears, read: read-out: ED 50 or the calculated dose for 50% suppression.
Setting [7] is: 30 mg/kg, affected by toxicity/behavioral problems, not probative.
The mark [8] stands for this setting: Chung model rats, i.p., Example 5.

Like-named read-outs stand apart in the source and are kept apart here. Bounds are passed on as bounds.

With `Cc1cccc(C)c1OCC(C)N` (racemic) [RS-Mexiletine, (R,S)-mexiletine], the Duration is reported as 60 min in data set [1] (Chung model rats, i.p.) and < 60 min in data set [2]. Besides, the “Time to peak effect” value in data set [1] (Chung model rats, i.p.) fell in the range of 15 to 30 min; in data set [2], 30 to 45 min. Besides, the “Max. efficacy (% MPE)” value in data set [1] (Chung model rats, i.p.) amounted to 76 % MPE; in data set [2], 61 % MPE. In addition, the results for the ED50 in data set [1], in data set [1] (setting [6]) and in data set [4] were 35 mg/kg, 35 mg/kg and 17 mg/kg, respectively. The “% MPE” value turned out to be 20 % MPE in data set [2] (3 mg/kg), 29 % MPE in data set [2] (10 mg/kg), 42 % MPE in data set [2] (20 mg/kg) and 75 % MPE in data set [2] (setting [7]). Besides, the therapeutic-toxic concentration range in data set [3] (Monk et al. 1990) was 0.5 to 2.0 µg/mL. In addition, the “incidence of adverse side effects (tremors, diplopia, nausea and vomiting)” value in data set [3] (human, in vivo) is recorded as “up to 70% of patients”. The “efficacy in painful neuropathies” value with painful neuropathies is reported as “has shown efficacy for a variety of painful neuropathies”.
Take `CCN(CC)CC(=O)Nc1c(C)cccc1C` [Lidocaine, lidocaine]: in data set [1] (Chung model rats, i.p.), the Duration was 90 min, the “Time to peak effect” value was found to be 15 min and the “Max. efficacy (% MPE)” value worked out at 83 % MPE. The ED50 in data set [1] came to 38 mg/kg. Also, in data set [2], the Duration was determined as 30 min, the “Time to peak effect” value came out at 30 min and the “Max. efficacy (% MPE)” value was 39 % MPE. In data set [4], this compound displayed an ED50 of 32 mg/kg.
`Cc1cccc(C)c1OC[C@@H](C)N` [R-Mexiletine, (R)-mexiletine]: in data set [1] (setting [8]), the “ED 50 (in words)” value was “could not be calculated due to low effect at maximum dose”. Further, in data set [1] (setting [8]), the “maximum efficacy or highest % suppression of allodynia at highest dose tested” value is reported as 12%±5%. The “Time to peak effect” value in data set [1] (Chung model rats, i.p.) is 30 min; in data set [2] it was 15 to 30 min. Moreover, the “Max. efficacy (% MPE)” value is 12 % MPE in data set [1] (Chung model rats, i.p.) and 11 % MPE in data set [2]. Besides, the “% MPE” value turned out to be 10 % MPE in data set [2] (3 mg/kg), 15 % MPE in data set [2] (10 mg/kg), 11 % MPE in data set [2] (20 mg/kg) and 86 % MPE in data set [2] (setting [7]). Besides, the “maximum efficacy or highest % suppression of allodynia at highest dosage unaffected by toxicity” value in data set [2] is 11%±5%. For the same compound, the “binding affinity relative to (S)-mexiletine” value in the data set with cardiac sodium channels is given as “twice that of (S)mexiletine”. Moreover, in the data set with arrhythmia in dogs (background finding referred to), the “antiarrhythmic properties relative to the (S)-isomer” value is listed as “greater than two times more antiarrhythmic properties than the (S)-isomer”. Also, the “antiarrhythmic properties relative to the (S)-enantiomer” value in the data set on arrhythmia in dogs (dogs, Turgeon et al. 1991) is listed as “greater antiarrhythmic properties than the (S)-enantiomer”.
As for `Cc1cccc(C)c1OC[C@H](C)N` [S-Mexiletine, (S)-mexiletine], in data set [1] (setting [8]), the “maximum efficacy or highest % suppression of allodynia at highest dose tested” value is on record as 79%±11%. The Duration in data set [1] (Chung model rats, i.p.) turned out to be 60 min; in data set [2] it was 60 min. Further, the “Time to peak effect” value is 15 min in data set [1] (Chung model rats, i.p.) and 15 to 45 min in data set [2]. Also, the “Max. efficacy (% MPE)” value was 79 % MPE in data set [1] (Chung model rats, i.p.) and 65 % MPE in data set [2]. Further, the results for the ED50 in data set [1], in data set [1] (setting [6]) and in data set [4] were 14 mg/kg, 14 mg/kg and 15 mg/kg, respectively. Besides, the “% MPE” value in data set [2] (3 mg/kg) came to 12 % MPE; in data set [2] (10 mg/kg), 50 % MPE; in data set [2] (20 mg/kg), 30 % MPE; in data set [2] (setting [7]), 75 % MPE. Moreover, the “maximum efficacy or highest % suppression of allodynia at highest dosage unaffected by toxicity” value in data set [2] was 65%±16%. In addition, the therapeutic-toxic range in data set [5] fell in the range of 0.25 to 4 µg/mL.

(Values after US5985933A, “Methods for treating central and peripheral nerve pain” (Celgene Corporation, priority 1997, dated 1999).)
